Laboratory results taken from patent US6586425B2, “Cytoskeletal active agents for glaucoma therapy” (Wisconsin Alumni Research Foundation, priority 1996, dated 2003).
Several values for one entry are separate records, joined by “and”; a condition that tells them apart may be missing. Identical values can stand only once. Like-named read-outs stand apart in the source and are kept apart here.

Columns and labels:
corneal endothelium = conditions: for Cell count Exp, drug eye / Cell count Exp, drug/Vehicle / Cell count Exp, drug−Vehicle / Cell count Exp/BL, drug eye / Cell count Exp/BL, drug/Vehicle / Cell count Exp/BL, drug−Vehicle: 21 μg LAT-A topical, n=4
living monkey eyes [1] = assay: Aqueous humor flow and corneal endothelial transfer coefficient ka by fluorophotometry; conditions: 42 μg LAT-A topical
living monkey eyes [2] = assay: Slit lamp biomicroscopy (ocular tolerability); type: in vivo, cynomolgus monkeys (Macaca fascicularis)
Description: e) Ocular Tolerability/Toxicity: Ocular exams, including slit lamp biomicroscopy (Zeiss or Haag-Streit), gonioscopy, and binocular indirect ophthalmoscopy (American Optical or Keeler), were performed by a trained ophthalmologist, using when necessary contact lenses specially fabricated for the small monkey eye (Kaufman and Wallow, Exp. Eye Res., 40:883-885[1985]). In addition, specular microscopy was used to evaluate drug effects on the corneal endothelium.
The AC of both eyes of was cannulated with a branched needle as above, after which baseline facility measurements were taken for 35-45 min. With reservoirs closed, 2×5 μl drops of 200 μM (˜0.8 μg) or 4×5 μl drops of 500 μM (˜4.0 μg) LAT-B were given to one eye of the prone monkey, allowing 60-90 sec between drops. […] Vehicle (10 or 25% DMSO respectively) was given simultaneously to the opposite eye in a similar manner. The doses were chosen to give […] and 1 μM LAT-B concentrations respectively in the 100 μl monkey AC (See e.g., Erickson-Lamy et al., Arch. Opthalmol., 102:1815-1820[1984]), assuming 1% penetration and no initial drug loss from the AC (Asseff et al., Amer. J. Ophthalmol., 75:212-215[1973]; Harris, in Leopold (ed.), Symposium on Ocular Therapy, C. V. Mosby, St. Louis, Mo., [1968], pp. 96-105; Janes and Stiles, Arch. Ophthahnol., 62:69-74[1959]). The perfusion system remained closed for 2 hr, after which facility measurements were taken for 90 min. Biomicroscopy was performed by an ophthalmologist before and 3, 7 and 14 days after drug administration.
For slit lamp biomicroscopy, a trained ophthalmologist examined all eyes by slit lamp, for integrity of the corneal epithelium and endothelium, presence of flare or cells in the anterior chamber and clarity of the lens. All animals were free of ocular abnormalities when studied.

living monkey eye = conditions: in vivo
living monkey eyes [3] = assay: Intraocular pressure by Goldmann applanation tonometry; type: in vivo, cynomolgus monkeys (Macaca fascicularis)
Description: The intraocular pressure (IOP) was determined with a “minified” Goldmann applanation tonometer (Kaufman and Davis, Arch. Ophthalmol., 98:542-546[1980]), using “Half and Half®” creamer solution (Borden) as the tear film indicator (Croft et al., in Lakshminarayanan (ed.), Basic and Clinical Applications of Vision Science, Dordtecht, Kluwer, [1997], pp. 213-216), with the monkey lying prone in a head holder and the eyes positioned 4 to 8 cm above the heart. All monkeys were examined by slit-lamp before the first IOP measurement in each protocol. For each eye, two or three IOP measurements were averaged as a baseline.
After baseline IOP was measured, 21 or 42 μg LAT-A or 4 μg LAT-B were administered to the central cornea of supine monkeys in one eye and the vehicle to the opposite eye. Blinking was prevented with lid speculums during and for 5 min. after drug administration (taking care to avoid touching the globe), to maximize drug penetration into the AC and minimize systemic absorption. Following drug administration, the speculums were gently removed and the monkeys were kept in the supine position for another 15 min to further facilitate penetration of drug/vehicle solution into the AC. For LAT-A, IOP was then measured every hr for 7 to 9 hr beginning 1, 6, or 15 hr after the 21 gg dose, or beginning 1 or 6 hr after the 42 μg dose, and again at 24 hr. Each protocol included two groups of monkeys. Group one (6 monkeys) underwent IOP measurement from 1-9 hr and again at 24 hr after the drug; group two (6 monkeys) were measured from 6-13 hr for both doses and again from 15 hr-21 hr on a separate occasion for the 21 μg dose. For both doses, one monkey in group one was used again in group two; therefore its two readings measured at baseline or the period 6-9 hr after the drug on the two different occasions was averaged for data analysis. Thus, “n” for baseline and the period 6-9 hr post-drug is 11 rather than 12. During intervals between the post-drug reading at 9 hr and that at 24 hr for group one or between the drug administration and the first post-drug reading at 6 hr for group two, the animals were returned to the Animal Care Unit for recovery. For LAT-B, IOP was measured every hr for 6 hr beginning 1 hr after the 4 μg dose, and again at 24 hr. The animals were returned to the Animal Care Unit for recovery between the measurements at 6 hr and 24 hr. Anterior segments were examined by slit-lamp at 3, 6, 10 or 24 hr after LAT-A, or at 1, 3, 6 or 24 hr after LAT-B.

C/C1=C/C(=O)O[C@@H]2C[C@@H](CC[C@H](C)/C=C\C=C\CC1)O[C@@](O)([C@@H]1CSC(=O)N1)C2 [LAT-A]
Cell count Exp, drug eye (corneal endothelium; 3 days): 2488 ± 63 cell per square millimeter
Cell count Exp, drug/Vehicle (corneal endothelium; 3 days): 1.02 ± 0.03
Cell count Exp, drug−Vehicle (corneal endothelium; 3 days): 44 ± 62 cell per square millimeter
Cell count Exp/BL, drug eye (corneal endothelium; 3 days): 0.98 ± 0.01
Cell count Exp/BL, drug/Vehicle (corneal endothelium; 3 days): 1.06 ± 0.02
Cell count Exp/BL, drug−Vehicle (corneal endothelium; 3 days): 0.05 ± 0.10
Cell count Exp, drug eye (corneal endothelium; 7 days): 2488 ± 97 cell per square millimeter
Cell count Exp, drug/Vehicle (corneal endothelium; 7 days): 0.98 ± 0.06
Cell count Exp, drug−Vehicle (corneal endothelium; 7 days): −69 ± 140 cell per square millimeter
Cell count Exp/BL, drug eye (corneal endothelium; 7 days): 0.98 ± 0.03
Cell count Exp/BL, drug/Vehicle (corneal endothelium; 7 days): 1.02 ± 0.08
Cell count Exp/BL, drug−Vehicle (corneal endothelium; 7 days): 0.01 ± 0.07
Cell count Exp, drug eye (corneal endothelium; 14 days): 2694 ± 28 cell per square millimeter
Cell count Exp, drug/Vehicle (corneal endothelium; 14 days): 1.01 ± 0.06
Cell count Exp, drug−Vehicle (corneal endothelium; 14 days): 0 ± 147 cell per square millimeter
Cell count Exp/BL, drug eye (corneal endothelium; 14 days): 1.06 ± 0.03
Cell count Exp/BL, drug/Vehicle (corneal endothelium; 14 days): 1.04 ± 0.03
Cell count Exp/BL, drug−Vehicle (corneal endothelium; 14 days): 0.04 ± 0.03
cell densities vs baseline (corneal endothelium; 21 μg LAT-A, day 3): essentially the same as at baseline
cell densities vs baseline or contralateral eyes (corneal endothelium; 42 μg LAT-A, day 3): slightly (but not significantly) lower cell densities than baseline or contralateral eyes
cell density and morphology (corneal endothelium; LAT-A either dose, day 7): cell density and morphology had returned to baseline
countability of corneal endothelial cells (corneal endothelium; either dose of LAT-A (21 or 42 μg), 1 or 3 hr): could not be counted
relative difference in ka between first and second 3-hr intervals (living monkey eyes [1]): 27±12%
increase in ka (living monkey eyes [1]; first 3 hr): 106±16%
increase in apparent AHF relative to vehicle, adjusted for baseline (living monkey eyes [1]; first 3 hr, n=8): 87% and 87±13%
increase in ka (living monkey eyes [1]; overall, n=8): 94±9%
AHF, drug- vs vehicle-treated eyes (living monkey eyes [1]; second 3 hr): no significant differences
increase in ka (living monkey eyes [1]; second 3 hr): 68±10%
AHF Rx, LAT-A eye (living monkey eyes [1]; hour 0.5 to 3.0, n=8): 3.48 microliters per minutes
AHF Rx, LAT-A/Vehicle (living monkey eyes [1]; hour 0.5 to 3.0, n=8): 1.94
AHF Rx/BL, LAT-A eye (living monkey eyes [1]; hour 0.5 to 3.0, n=8): 1.82
AHF Rx/BL, LAT-A/Vehicle (living monkey eyes [1]; hour 0.5 to 3.0, n=8): 1.87
ka Rx, LAT-A eye (living monkey eyes [1]; hour 0.5 to 3.0, n=8): 0.00996 min⁻¹
ka Rx, LAT-A/Vehicle (living monkey eyes [1]; hour 0.5 to 3.0, n=8): 2.15
ka Rx/BL, LAT-A eye (living monkey eyes [1]; hour 0.5 to 3.0, n=8): 1.84
ka Rx/BL, LAT-A/Vehicle (living monkey eyes [1]; hour 0.5 to 3.0, n=8): 2.06
AHF Rx, LAT-A eye (living monkey eyes [1]; hour 0.5 to 6.0, n=8): 2.65 microliters per minutes
AHF Rx, LAT-A/Vehicle (living monkey eyes [1]; hour 0.5 to 6.0, n=8): 1.51
AHF Rx/BL, LAT-A eye (living monkey eyes [1]; hour 0.5 to 6.0, n=8): 1.38
AHF Rx/BL, LAT-A/Vehicle (living monkey eyes [1]; hour 0.5 to 6.0, n=8): 1.51
ka Rx, LAT-A eye (living monkey eyes [1]; hour 0.5 to 6.0, n=8): 0.00961 min⁻¹
ka Rx, LAT-A/Vehicle (living monkey eyes [1]; hour 0.5 to 6.0, n=8): 1.98
ka Rx/BL, LAT-A eye (living monkey eyes [1]; hour 0.5 to 6.0, n=8): 1.72
ka Rx/BL, LAT-A/Vehicle (living monkey eyes [1]; hour 0.5 to 6.0, n=8): 1.94
AHF Rx, LAT-A eye (living monkey eyes [1]; hour 3.5 to 6.0, n=8): 1.87 microliters per minutes
AHF Rx, LAT-A/Vehicle (living monkey eyes [1]; hour 3.5 to 6.0, n=8): 1.00
AHF Rx/BL, LAT-A eye (living monkey eyes [1]; hour 3.5 to 6.0, n=8): 1.00
AHF Rx/BL, LAT-A/Vehicle (living monkey eyes [1]; hour 3.5 to 6.0, n=8): 1.01
ka Rx, LAT-A eye (living monkey eyes [1]; hour 3.5 to 6.0, n=8): 0.00925 min⁻¹
ka Rx, LAT-A/Vehicle (living monkey eyes [1]; hour 3.5 to 6.0, n=8): 1.69
ka Rx/BL, LAT-A eye (living monkey eyes [1]; hour 3.5 to 6.0, n=8): 1.59
ka Rx/BL, LAT-A/Vehicle (living monkey eyes [1]; hour 3.5 to 6.0, n=8): 1.68
lens appearance (living monkey eyes [2]; after topical drug): always appeared normal
corneal epithelium at slit lamp (living monkey eyes [2]; topical LAT-A (21 or 42 μg) or LAT-B (4 μg) in 25% DMSO): mild transient corneal epithelial cloudiness
eyes that developed flare (1-2+ on a scale of 0-4+) (living monkey eyes [2]; topical, recovered by 24-48 hr): Four LAT-A- treated eyes
BL2/BL1, Rx eye (living monkey eye): 1.24 ± 0.19
BL2/BL1, Rx/Cont (living monkey eye): 1.12 ± 0.15
Baseline facility BL2, Rx eye (living monkey eye): 0.42 ± 0.06 μl/min/mmHg
Baseline facility BL2, Rx/Cont (living monkey eye): 1.07 ± 0.17
effect on facility (living monkey eye): probably ineffective
reversibility of the facility-effect (living monkey eye): minimal
period of lowered IOP after drug administration (living monkey eyes [3]; 21 μg LAT-A topical): 5 to 10 h
maximal IOP decrease below baseline (living monkey eyes [3]; 21 μg LAT-A topical, at 8 hr, n=11): 3.48±1.29 mmHg
period of lowered IOP after drug administration (living monkey eyes [3]; 42 μg LAT-A topical): 6 to 13 h
maximal IOP reduction below baseline (living monkey eyes [3]; 42 μg LAT-A topical, at 9 hr, n=11): 4.60±1.61 mmHg
time to IOP reduction after administration (living monkey eyes [3]; living monkeys, topical): 6 h
